Results as given in PubChem BioAssay (NCI).
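1) Cells in 96-well plates. 2) Compound, 48 h, 5 concentrations. 3) Linear interpolation between surrounding doses. 4) Unreached endpoint = highest concentration. GI50 = concentration required for 50% inhibition of growth. TGI marks complete inhibition of growth.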

Legend:
Assay in all cases: growth of human tumour cells (NCI), 48 h
TK-10 renal = tested on: TK-10 renal
SK-MEL-2 melanoma = tested on: SK-MEL-2 melanoma
OVCAR-3 ovarian = tested on: OVCAR-3 ovarian
SK-OV-3 ovarian = tested on: SK-OV-3 ovarian
HOP-92 NSCLC = tested on: HOP-92 NSCLC
HCC-2998 colon = tested on: HCC-2998 colon
NCI-H23 lung = tested on: NCI-H23 lung
786-0 renal = tested on: 786-0 renal
SNB-19 CNS = tested on: SNB-19 CNS
NCI-H460 lung = tested on: NCI-H460 lung
U251 CNS = tested on: U251 CNS
RXF 393 renal = tested on: RXF 393 renal
ACHN renal = tested on: ACHN renal
EKVX NSCLC = tested on: EKVX NSCLC
SN12C renal = tested on: SN12C renal
SR leukemia = tested on: SR leukemia
BT-549 breast = tested on: BT-549 breast
MOLT-4 leukemia = tested on: MOLT-4 leukemia
CCRF-CEM leukemia = tested on: CCRF-CEM leukemia
UACC-62 melanoma = tested on: UACC-62 melanoma
HOP-62 NSCLC = tested on: HOP-62 NSCLC
CAKI-1 renal = tested on: CAKI-1 renal
MDA-MB-231 breast = tested on: MDA-MB-231 breast
IGROV1 ovarian = tested on: IGROV1 ovarian
UO-31 renal = tested on: UO-31 renal
PC-3 prostate = tested on: PC-3 prostate
MCF7 breast = tested on: MCF7 breast
COLO 205 colon = tested on: COLO 205 colon
NCI-H226 lung = tested on: NCI-H226 lung
UACC-257 melanoma = tested on: UACC-257 melanoma
HT29 colon = tested on: HT29 colon
MDA-MB-435 = tested on: MDA-MB-435
OVCAR-5 ovarian = tested on: OVCAR-5 ovarian
SNB-75 CNS = tested on: SNB-75 CNS
SF-295 CNS = tested on: SF-295 CNS
SK-MEL-28 melanoma = tested on: SK-MEL-28 melanoma
KM12 colon = tested on: KM12 colon
SK-MEL-5 melanoma = tested on: SK-MEL-5 melanoma
RPMI-8226 leukemia = tested on: RPMI-8226 leukemia
NCI-H522 lung = tested on: NCI-H522 lung
K-562 leukemia = tested on: K-562 leukemia
NCI/ADR-RES ovarian = tested on: NCI/ADR-RES ovarian
A498 renal = tested on: A498 renal
HCT-15 colon = tested on: HCT-15 colon
A549 NSCLC = tested on: A549 NSCLC
HS 578T breast = tested on: HS 578T breast
MALME-3M melanoma = tested on: MALME-3M melanoma
SW-620 colon = tested on: SW-620 colon
DU-145 prostate = tested on: DU-145 prostate
HL-60(TB) leukemia = tested on: HL-60(TB) leukemia
M14 melanoma = tested on: M14 melanoma
OVCAR-8 ovarian = tested on: OVCAR-8 ovarian
OVCAR-4 ovarian = tested on: OVCAR-4 ovarian
LOX IMVI melanoma = tested on: LOX IMVI melanoma
T-47D breast = tested on: T-47D breast
SF-539 CNS = tested on: SF-539 CNS
SF-268 CNS = tested on: SF-268 CNS
HCT-116 colon = tested on: HCT-116 colon
MDA-N = tested on: MDA-N

CC1(C)N=C(N)N=C(N)N1c1cccc(CCCCc2cccc(S(=O)(=O)F)c2)c1
GI50 (TK-10 renal): 4.85 µM
TGI (TK-10 renal): > 100 µM
GI50 (SK-MEL-2 melanoma): 2.73 µM
TGI (SK-MEL-2 melanoma): > 58.5 µM
GI50 (OVCAR-3 ovarian): 4.29 µM
TGI (OVCAR-3 ovarian): 27.1 µM
GI50 (SK-OV-3 ovarian): 10.9 µM
TGI (SK-OV-3 ovarian): > 100 µM
GI50 (HOP-92 NSCLC): 5.48 µM
TGI (HOP-92 NSCLC): 94 µM
GI50 (HCC-2998 colon): 3.17 µM
TGI (HCC-2998 colon): > 56.3 µM
GI50 (NCI-H23 lung): 2.39 µM
TGI (NCI-H23 lung): > 100 µM
GI50 (786-0 renal): 2.12 µM
TGI (786-0 renal): > 100 µM
GI50 (SNB-19 CNS): 1.53 µM
TGI (SNB-19 CNS): > 77.7 µM
GI50 (NCI-H460 lung): 0.327 µM
TGI (NCI-H460 lung): > 75.7 µM
GI50 (U251 CNS): 0.456 µM
TGI (U251 CNS): 36 µM
GI50 (RXF 393 renal): 2.13 µM
TGI (RXF 393 renal): > 100 µM
GI50 (ACHN renal): 11.8 µM
TGI (ACHN renal): > 100 µM
GI50 (EKVX NSCLC): 19.2 µM
TGI (EKVX NSCLC): > 100 µM
GI50 (SN12C renal): 0.571 µM
TGI (SN12C renal): > 100 µM
GI50 (SR leukemia): 0.355 µM
TGI (SR leukemia): 33.2 µM
GI50 (BT-549 breast): 0.973 µM
TGI (BT-549 breast): > 43.1 µM
GI50 (MOLT-4 leukemia): 3.22 µM
TGI (MOLT-4 leukemia): 80.7 µM
GI50 (CCRF-CEM leukemia): 0.559 µM
TGI (CCRF-CEM leukemia): 53.4 µM
GI50 (UACC-62 melanoma): 0.281 µM
TGI (UACC-62 melanoma): 18 µM
GI50 (HOP-62 NSCLC): 3.04 µM
TGI (HOP-62 NSCLC): > 47.9 µM
GI50 (CAKI-1 renal): 20.3 µM
TGI (CAKI-1 renal): > 100 µM
GI50 (MDA-MB-231 breast): 6.6 µM
TGI (MDA-MB-231 breast): > 100 µM
GI50 (IGROV1 ovarian): 0.157 µM
TGI (IGROV1 ovarian): > 58.3 µM
GI50 (UO-31 renal): > 100 µM
TGI (UO-31 renal): > 100 µM
GI50 (PC-3 prostate): 0.157 µM
TGI (PC-3 prostate): > 100 µM
GI50 (MCF7 breast): 0.485 µM
TGI (MCF7 breast): 24.9 µM
GI50 (COLO 205 colon): 1.53 µM
TGI (COLO 205 colon): > 100 µM
GI50 (NCI-H226 lung): 8.93 µM
TGI (NCI-H226 lung): > 100 µM
GI50 (UACC-257 melanoma): 2.79 µM
TGI (UACC-257 melanoma): 36.6 µM
GI50 (HT29 colon): 0.26 µM
TGI (HT29 colon): > 100 µM
GI50 (MDA-MB-435): 0.329 µM
TGI (MDA-MB-435): 29 µM
TGI (OVCAR-5 ovarian): > 100 µM
GI50 (SNB-75 CNS): 0.98 µM
TGI (SNB-75 CNS): 23.7 µM
GI50 (SF-295 CNS): 2.45 µM
TGI (SF-295 CNS): > 100 µM
GI50 (SK-MEL-28 melanoma): 4.1 µM
TGI (SK-MEL-28 melanoma): 21.7 µM
GI50 (KM12 colon): 0.474 µM
TGI (KM12 colon): 14.2 µM
GI50 (SK-MEL-5 melanoma): 0.535 µM
TGI (SK-MEL-5 melanoma): 14.8 µM
GI50 (RPMI-8226 leukemia): 2.31 µM
TGI (RPMI-8226 leukemia): 35.2 µM
GI50 (NCI-H522 lung): 2.55 µM
TGI (NCI-H522 lung): 43.9 µM
GI50 (K-562 leukemia): 0.657 µM
TGI (K-562 leukemia): > 100 µM
GI50 (NCI/ADR-RES ovarian): > 79.2 µM
TGI (NCI/ADR-RES ovarian): > 100 µM
GI50 (A498 renal): 7.36 µM
TGI (A498 renal): > 100 µM
GI50 (HCT-15 colon): 14.1 µM
TGI (HCT-15 colon): > 100 µM
GI50 (A549 NSCLC): 0.751 µM
TGI (A549 NSCLC): > 100 µM
GI50 (HS 578T breast): 51.1 µM
TGI (HS 578T breast): > 100 µM
GI50 (MALME-3M melanoma): 8.47 µM
TGI (MALME-3M melanoma): 71.8 µM
GI50 (SW-620 colon): 0.342 µM
TGI (SW-620 colon): > 100 µM
GI50 (DU-145 prostate): 1.17 µM
TGI (DU-145 prostate): > 100 µM
GI50 (HL-60(TB) leukemia): 1.95 µM
TGI (HL-60(TB) leukemia): 47.8 µM
GI50 (M14 melanoma): 2.92 µM
TGI (M14 melanoma): > 100 µM
GI50 (OVCAR-8 ovarian): 4.84 µM
TGI (OVCAR-8 ovarian): > 100 µM
GI50 (OVCAR-4 ovarian): 8.06 µM
TGI (OVCAR-4 ovarian): > 100 µM
GI50 (LOX IMVI melanoma): 0.424 µM
TGI (LOX IMVI melanoma): > 100 µM
GI50 (T-47D breast): 12.3 µM
TGI (T-47D breast): 45.1 µM
GI50 (SF-539 CNS): 0.773 µM
TGI (SF-539 CNS): 18.8 µM
GI50 (SF-268 CNS): 0.887 µM
TGI (SF-268 CNS): 20.8 µM
GI50 (HCT-116 colon): 0.445 µM
TGI (HCT-116 colon): > 100 µM

CC1(C#N)N(C(=O)c2ccccc2)c2ccccc2N1C(=O)c1ccccc1
GI50 (HOP-92 NSCLC): 52 µM
GI50 (NCI-H23 lung): 64.4 µM
GI50 (U251 CNS): 15.3 µM
GI50 (ACHN renal): 72.9 µM
GI50 (SR leukemia): 45.4 µM
GI50 (MOLT-4 leukemia): 22.9 µM
TGI (MOLT-4 leukemia): 71.9 µM
GI50 (CCRF-CEM leukemia): 23.9 µM
TGI (CCRF-CEM leukemia): 77.9 µM
GI50 (UACC-62 melanoma): 79.7 µM
GI50 (CAKI-1 renal): 65 µM
GI50 (MDA-MB-231 breast): 65.3 µM
GI50 (UO-31 renal): 45.1 µM
GI50 (MCF7 breast): 37.2 µM
GI50 (COLO 205 colon): 46.5 µM
GI50 (NCI-H226 lung): 91.8 µM
GI50 (UACC-257 melanoma): 86.4 µM
GI50 (HT29 colon): 66.4 µM
GI50 (MDA-MB-435): 62.9 µM
GI50 (RPMI-8226 leukemia): 39.8 µM
GI50 (MDA-N): 79.4 µM
GI50 (NCI-H522 lung): 49.4 µM
GI50 (K-562 leukemia): 33 µM
GI50 (NCI/ADR-RES ovarian): 79.7 µM
GI50 (MALME-3M melanoma): 44.6 µM
GI50 (SW-620 colon): 75.9 µM
GI50 (DU-145 prostate): 81.8 µM
GI50 (HL-60(TB) leukemia): 69.9 µM
GI50 (M14 melanoma): 29.3 µM
TGI (M14 melanoma): 98.4 µM
GI50 (OVCAR-4 ovarian): 57.7 µM
GI50 (LOX IMVI melanoma): 33.6 µM
GI50 (T-47D breast): 38.7 µM
GI50 (HCT-116 colon): 35.4 µM

CN(C)CCOc1ccc2[nH]c(C(=O)N3CC(CCl)c4c3cc(N)c3ccccc43)cc2c1 (stereo unspecified)
TGI (TK-10 renal): > 4.64 µM
TGI (SK-MEL-2 melanoma): < 0.01 µM
TGI (OVCAR-3 ovarian): < 0.01 µM
TGI (SK-OV-3 ovarian): < 0.01 µM
TGI (HOP-92 NSCLC): < 0.01 µM
TGI (HCC-2998 colon): < 0.01 µM
TGI (NCI-H23 lung): < 0.01 µM
TGI (786-0 renal): < 0.01 µM
TGI (SNB-19 CNS): 0.202 µM
TGI (U251 CNS): 1.1 µM
TGI (ACHN renal): < 0.01 µM
TGI (BT-549 breast): 1.64 µM
TGI (MOLT-4 leukemia): < 0.01 µM
TGI (CCRF-CEM leukemia): > 100 µM
TGI (MDA-MB-231 breast): > 100 µM
TGI (UO-31 renal): < 0.01 µM
TGI (PC-3 prostate): 3.66 µM
TGI (NCI-H226 lung): < 0.01 µM
TGI (HT29 colon): 1.71 µM
TGI (MDA-MB-435): < 0.01 µM
TGI (OVCAR-5 ovarian): > 100 µM
TGI (SNB-75 CNS): < 0.215 µM
TGI (SK-MEL-28 melanoma): < 0.01 µM
TGI (KM12 colon): < 0.01 µM
TGI (SK-MEL-5 melanoma): < 0.01 µM
TGI (RPMI-8226 leukemia): < 0.01 µM
TGI (MDA-N): < 0.01 µM
TGI (K-562 leukemia): > 4.64 µM
TGI (HCT-15 colon): > 46.9 µM
TGI (A549 NSCLC): 13.2 µM
TGI (MALME-3M melanoma): < 0.01 µM
TGI (DU-145 prostate): 0.0525 µM
TGI (HL-60(TB) leukemia): > 100 µM
TGI (M14 melanoma): > 100 µM
TGI (OVCAR-4 ovarian): 1.18 µM
TGI (SF-268 CNS): > 4.64 µM
TGI (HCT-116 colon): 3.63 µM
